Results on 2 molecules are retold here after patent US20230241257A1, “BIOTIN-MODIFIED DIMER AND USE THEREOF” (THE UNIVERSITY OF TOKYO, priority 2020, published 2023).

In series [1] the test system is human stomach cancer cells (MKN-45). In words: Experiment 8: therapeutic effects and toxicity of Cupid-scFv antibody (24 h before)+^211At-psyche-BR in MKN-45 cancer-bearing mouse models. To be noted: for general states and body weight: Day 5, urgent euthanasia. The series is classed as in vivo, mice (BALB/cSlc nu/nu). On the procedure: The present experiment used human stomach cancer cells (MKN-45) expressing carcinoembryonic antigen (CEA). 9-week-old male immunodeficient mice (BALB/cSlc nu/nu) were used. MKN-45 cells (5×10^6/0.1 ml) were transplanted into the mice's subcutis on the right shoulder dorsal side to produce cancer-bearing mouse models. At the time point in which the tumor volume became a predetermined size (on Day 8 after the transplantation), the mice were divided into seven groups, which were for use in the evaluation of the therapeutic effects, and a biodistribution group (6 hours) of cancer-bearing mouse models having this tumor size. The Cupid-scFv antibody was administered 100 μmol/0.1 ml via the caudal vein of each mouse. Twenty-four hours after administration of the Cupid-scFv antibody, ^211At-psyche-BR was administered via the caudal vein of each mouse in an amount of 5.55 MBq, 3.70 MBq, 1.85 MBq, 1.11 MBq, or 0.37 MBq.
To a control group, a solvent for the ^211At-psyche-BR was administered (solvent group). A group to which only cupid was administered was defined as a Cupid group. The mice's general states were observed and recorded immediately after administration of the ^211At-psyche-BR and at 3 hours after the administration. Moreover, until Day 14, after administration of the ^211At-psyche-BR, observation of the general states and the measurement of the body weight was carried out every day. After Day 14 of the administration of the ^211At-psyche-BR, observation of the general states and the measurement of the body weight was carried out every other day. The tumor size was measured every other day after the treatment with the ^211At-psyche-BR. On Day 36, after the treatment with the ^211At-psyche-BR, observation of the general states, the measurement of the body weight, and the measurement of the tumor size were carried out, and the mice were then euthanized by collecting whole blood from the heart of each mouse under isoflurane anesthesia. Tumor tissues and major tissues/organs were excised from the mice, weighed, and immobilized with formalin.

For series [2] the test system is unchanged. In words: Experiment 11: pharmacokinetics (6 h) of Cupid-scFv antibody (24 h before)+^211At-psyche-B in MKN-45 cancer-bearing mouse models. Type of series: in vivo, mice (BALB/cSlc nu/nu). To be noted: six hours after administration, tumor on Day 8 after transplantation. On the procedure:
The present experiment used human stomach cancer cells (MKN-45) expressing carcinoembryonic antigen (CEA). 9-week-old male immunodeficient mice (BALB/cSlc nu/nu) were used. MKN-45 cells (1×10^7/0.1 ml) were transplanted into the mice's subcutis on the right shoulder dorsal side to produce cancer-bearing mouse models. When the tumor volume became a predetermined size (on Day 8 after the transplantation), the Cupid-scFv antibody was administered 100 μmol/0.1 ml via the caudal vein of each mouse. Twenty-four hours after administration of the Cupid-scFv antibody, ^211At-psyche-B (about 0.30 MBq/100 ml) was administered via the caudal vein of each mouse. […] After that, the weights of blood, plasma, urine, tumor, and normal tissues/organs were measured, and the radioactivity thereof was then measured using a γ counter. The amounts of the ^211At-psyche-B (radioactivity) accumulated in the blood, plasma, urine, tumor, and normal tissues/organs were calculated. […] Regarding accumulation of the ^211At-psyche-B in the thyroid gland, since the weight of the thyroid gland could not be precisely measured, it was shown that the rate (% ID) of the ^211At-psyche-B accumulated in the thyroid gland in the administered ^211At-psyche-B.

`N=C1N[C@H]2[C@H](CS[C@H]2CCCCNC(=O)CCCCCC(=O)Nc2cc(NC(=O)CCCCCC(=O)NCCCC[C@@H]3SC[C@@H]4NC(=N)N[C@@H]43)cc(C(=O)NCCOCCOCCNC(=O)c3cccc([211At])c3)c2)N1` [^211At-psyche-BR]: the “general states and body weight changes” value in series [1] (0.37 MBq) and in series [1] (1.11 MBq) was “almost the same levels as in the control group” each time. The “tumor growth compared with the control group” value was “tumor growth was suppressed” in series [1] (0.37 MBq, until Day 10); “tumor growth was suppressed” in series [1] (1.11 MBq, until Day 10); “the tumor growth was suppressed in an amount-dependent manner” in series [1] (1.85, 1.11 and 0.37 MBq, after Day 10); “tumor growth was suppressed” in series [1] (1.85 MBq, until Day 10). Moreover, the “general states and body weight” value in series [1] (3.70 MBq) is “general states and body weight reduction became severe”; in series [1] (5.55 MBq) it was “general states and body weight reduction became severe”.

Turning to `N=C1N[C@H]2[C@H](CS[C@H]2CCCCC(=O)NCCCCCC(=O)Nc2cc(NC(=O)CCCCCNC(=O)CCCC[C@@H]3SC[C@@H]4NC(=N)N[C@@H]43)cc(C(=O)NCCOCCOCCNC(=O)c3cccc([211At])c3)c2)N1` [^211At-psyche-B], in series [2], the “Accumulation in the tumor” value amounted to 25.8±1.5 % ID/g.
